Data as given in US20220233566A1, “NOVEL CARBONATE COMPOUND HAVING PYRROLOPYRIMIDINE SKELETON OR PHARMACEUTICALLY ACCEPTABLE SALT THEREOF” (TAIHO PHARMACEUTICAL CO., LTD., priority 2019, published 2022).

Key:
Assay type in all cases: cell-based
[1] = system: H2081; assay: Growth suppression activity in human tumor cell line; settings: NCI-H2081, 72 h; Human lung cancer, H2081, 3 days
Protocol: (§1) Human tumor cell lines different in type were suspended in mediums, seeded in individual wells of a multi-well plate and cultured. On the day after initiation of culture, serially diluted solutions of a compound were added. Culture was carried out for further 3 days. Cells were counted by a CellTiter-Glo (manufactured by Promega KK) in accordance with the protocol recommended by Promega KK. Cell viability was calculated in accordance with the equation shown below and the concentration (IC50 (μM)) of the compound at which 50% of cell growth is inhibited was obtained.
(§2) T: Intensity of light emitted from a well containing a compound
(§3) C: Intensity of light emitted from a well containing no compound

[2] = system: H226; assay: as above; settings: NCI-H226, 72 h; Human lung cancer, H226, 3 days
Protocol: as §1, §2, §3

[3] = system: SW48; assay: as above; settings: 72 h; Human colorectal cancer, SW48, 3 days
Protocol: as §1, §2, §3

[4] = system: CCRFCEM; assay: as above; settings: CCRF-CEM, 72 h, Human hematopoietic organ tumor, 3 days
Protocol: as §1, §2, §3

[5] = system: H2126; assay: as above; settings: NCI-H2126, 72 h; Human lung cancer, H2126, 3 days
Protocol: as §1, §2, §3

[6] = system: SPC111; assay: as above; settings: 72 h; Human lung cancer, SPC111, 3 days
Protocol: as §1, §2, §3

[7] = system: CFPAC1; assay: as above; settings: CFPAC-1, 72 h; Human pancreatic cancer, CFPAC1, 3 days
Protocol: as §1, §2, §3

[8] = system: H2170; assay: as above; settings: NCI-H2170, 72 h; Human lung cancer, H2170, 3 days
Protocol: as §1, §2, §3

[9] = system: K562; assay: as above; settings: 72 h; Human hematopoietic organ tumor, K562, 3 days
Protocol: as §1, §2, §3

[10] = system: HL60; assay: as above; settings: HL-60, 72 h; Human hematopoietic organ tumor, HL60, 3 days
Protocol: as §1, §2, §3

[11] = system: MV-4-11; assay: as above; settings: MV4-11, 72 h; Human hematopoietic organ tumor, MV-4-11, 3 days
Protocol: as §1, §2, §3

[12] = system: BC3; assay: as above; settings: BC-3, 72 h; Human hematopoietic organ tumor, BC3, 3 days
Protocol: as §1, §2, §3

[13] = system: H69; assay: as above; settings: NCI-H69, 72 h; Human lung cancer, H69, 3 days
Protocol: as §1, §2, §3

[14] = system: DMS273; assay: as above; settings: DMS-273, 72 h; Human lung cancer, DMS273, 3 days
Protocol: as §1, §2, §3

[15] = system: COL0792; assay: as above; settings: 72 h; Human skin cancer, COL0792, 3 days
Protocol: as §1, §2, §3

[16] = system: A2780; assay: as above; settings: 72 h; Human ovary cancer, A2780, 3 days
Protocol: as §1, §2, §3

[17] = system: HT1197; assay: as above; settings: 72 h; human bladder cancer, HT1197, 3 days
Protocol: as §1, §2, §3

[18] = system: HT1376; assay: as above; settings: HT-1376, 72 h; human bladder cancer, HT1376, 3 days
Protocol: as §1, §2, §3

[19] = system: A673; assay: as above; settings: 72 h; Human bone tumor, A673, 3 days
Protocol: as §1, §2, §3

[20] = system: LN229; assay: as above; settings: LN-229, 72 h; Human brain tumor, LN229, 3 days
Protocol: as §1, §2, §3

[21] = system: MOLT4; assay: as above; settings: MOLT-4, 72 h; Human hematopoietic organ tumor, MOLT4, 3 days
Protocol: as §1, §2, §3

[22] = system: A172; assay: as above; settings: A 172, 72 h; Human brain tumor, A172, 3 days
Protocol: as §1, §2, §3

[23] = system: H526; assay: as above; settings: NCI-H526, 72 h; Human lung cancer, H526, 3 days
Protocol: as §1, §2, §3

[24] = as above; settings: 72 h; Human prostate cancer, DUI45, 3 days
Protocol: as §1, §2, §3

[25] = system: BXPC3; assay: as above; settings: BXPC-3, 72 h; Human pancreatic cancer, BXPC3, 3 days
Protocol: as §1, §2, §3

[26] = system: MCF7; assay: as above; settings: 72 h; Human breast cancer, MCF7, 3 days
Protocol: as §1, §2, §3

[27] = system: HT29; assay: as above; settings: HT-29, 72 h; Human colorectal cancer, HT29, 3 days
Protocol: as §1, §2, §3

[28] = system: BHL-89; assay: as above; settings: 72 h; Human hematopoietic organ tumor, BHL-89, 3 days
Protocol: as §1, §2, §3

[29] = system: RPMI8226; assay: as above; settings: RPMI-8226, 72 h; Human hematopoietic organ tumor, RPMI8226, 3 days
Protocol: as §1, §2, §3

[30] = system: H1703; assay: as above; settings: NCI-H1703, 72 h; Human lung cancer, H1703, 3 days
Protocol: as §1, §2, §3

[31] = system: Mero83; assay: as above; settings: 72 h; Human lung cancer, Mero83, 3 days
Protocol: as §1, §2, §3

[32] = system: HCT116; assay: as above; settings: HCT-116, 72 h; Human colorectal cancer, HCT116, 3 days
Protocol: as §1, §2, §3

[33] = system: H1975; assay: as above; settings: NCI-H1975, 72 h; Human lung cancer, H1975, 3 days
Protocol: as §1, §2, §3

[34] = system: SDM103T2; assay: as above; settings: 72 h; Human lung cancer, SDM103T2, 3 days
Protocol: as §1, §2, §3

[35] = system: CA9-22; assay: as above; settings: 72 h; Human head and neck cancer, CA9-22, 3 days
Protocol: as §1, §2, §3

For Nc1ncnc2c1c(Br)cn2[C@@H]1O[C@H](CO)[C@@H](O)[C@@H]1F [Comparative Example 1, (2R,3R,4S,5R)-5-(4-amino-5-bromo-7H-pyrrolo[2,3-d]pyrimidin-7-yl)-4-fluoro-2-(hydroxymethyl) tetrahydrofuran-3-ol], the IC50 [1] was 90 nM, the IC50 [2] was 130 nM and the IC50 [3] was 130 nM. It also gave an IC50 [4] of 50 nM, an IC50 [5] of 110 nM and an IC50 [6] of 360 nM. For the same compound, the IC50 [7] was 110 nM, the IC50 [8] was 260 nM and the IC50 [9] was 110 nM. For the same compound, the IC50 [10] was 300 nM, the IC50 [11] was 30 nM and the IC50 [12] was 20 nM. It also gave an IC50 [13] of 110 nM, an IC50 [14] of 400 nM and an IC50 [15] of 890 nM. It also gave an IC50 [16] of 50 nM, an IC50 [17] of 130 nM and an IC50 [18] of 60 nM. For the same compound, the IC50 [19] was 130 nM, the IC50 [20] was 630 nM and the IC50 [21] was 60 nM. The IC50 [22] was 140 nM, the IC50 [23] was 170 nM and the IC50 [24] was 90 nM. For the same compound, the IC50 [25] was 270 nM, the IC50 [26] was 80 nM and the IC50 [27] was 110 nM. For the same compound, the IC50 [28] was 230 nM, the IC50 [29] was 340 nM and the IC50 [30] was 20 nM. It also gave an IC50 [31] of 350 nM, an IC50 [32] of 120 nM and an IC50 [33] of 70 nM. For the same compound, the IC50 [34] was 580 nM and the IC50 [35] was 80 nM.
